Measured values published in PubChem BioAssay (NCI).
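Where inhibition never reached the appropriate level, the endpoint shown equals the highest concentration tested. Otherwise, values were interpolated linearly from a five-concentration, 48-hour dose response in 96-well plates. GI50 is the concentration that inhibits growth by half. At the TGI there is no net growth.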

Experiments:
Experiment in all cases: growth of human tumour cells (NCI), 48 h
[1] = tested on: HOP-92 NSCLC
[2] = tested on: UACC-62 melanoma
[3] = tested on: HS 578T breast
[4] = tested on: OVCAR-4 ovarian
[5] = tested on: SNB-75 CNS
[6] = tested on: U251 CNS
[7] = tested on: HCT-116 colon
[8] = tested on: NCI/ADR-RES ovarian
[9] = tested on: SF-268 CNS
[10] = tested on: IGROV1 ovarian
[11] = tested on: HT29 colon
[12] = tested on: SK-MEL-2 melanoma
[13] = tested on: MDA-MB-231 breast
[14] = tested on: MDA-MB-468 breast
[15] = tested on: CCRF-CEM leukemia
[16] = tested on: SK-OV-3 ovarian
[17] = tested on: SF-539 CNS
[18] = tested on: COLO 205 colon
[19] = tested on: KM12 colon
[20] = tested on: HCC-2998 colon
[21] = tested on: BT-549 breast
[22] = tested on: SNB-19 CNS
[23] = tested on: OVCAR-3 ovarian
[24] = tested on: RXF 393 renal
[25] = tested on: A549 NSCLC
[26] = tested on: LOX IMVI melanoma
[27] = tested on: SN12C renal
[28] = tested on: HL-60(TB) leukemia
[29] = tested on: M14 melanoma
[30] = tested on: CAKI-1 renal

Q: With `C=CCn1c(SCC(=O)Nc2ccc(C(=O)/C=C/c3ccccc3)cc2)nnc1-c1c[nH]c2ccccc12` as the molecule, how does the GI50 [1] read?
A: Its GI50 is 6.54 µM.

Q: And the TGI [1]?
A: Its TGI is > 100 µM.

Q: What about the GI50 [2] of the same molecule?
A: The GI50 was 9.27 µM.

Q: What about the TGI [2] of the same molecule?
A: Its TGI is > 100 µM.

Q: What about the GI50 [3] of the same molecule?
A: Its GI50 is 9.05 µM.

Q: What about the TGI [3] of the same molecule?
A: Its TGI is > 100 µM.

Q: What about the GI50 [4] of the same molecule?
A: The GI50 was 7.07 µM.

Q: What about the TGI [4] of the same molecule?
A: Its TGI is > 100 µM.

Q: What about the GI50 [5] of the same molecule?
A: The GI50 was 2.69 µM.

Q: And the TGI [5]?
A: Its TGI is > 100 µM.

Q: What about the GI50 [6] of the same molecule?
A: Its GI50 is 6.65 µM.

Q: What about the TGI [6] of the same molecule?
A: The TGI was 19.9 µM.

Q: What about the GI50 [7] of the same molecule?
A: The GI50 was 1.89 µM.

Q: And the TGI [7]?
A: Its TGI is 3.99 µM.

Q: What about the GI50 [8] of the same molecule?
A: Its GI50 is 32.2 µM.

Q: And the TGI [8]?
A: The TGI was > 100 µM.

Q: And the GI50 [9]?
A: The GI50 was 10.9 µM.

Q: And the TGI [9]?
A: The TGI was > 100 µM.

Q: What about the GI50 [10] of the same molecule?
A: Its GI50 is 22.5 µM.

Q: What about the TGI [10] of the same molecule?
A: The TGI was 86.3 µM.

Q: What about the GI50 [11] of the same molecule?
A: Its GI50 is 3.27 µM.

Q: What about the TGI [11] of the same molecule?
A: Its TGI is 12.3 µM.

Q: And the GI50 [12]?
A: Its GI50 is 11.2 µM.

Q: And the TGI [12]?
A: The TGI was 55.4 µM.

Q: And the GI50 [13]?
A: Its GI50 is 11.3 µM.

Q: And the TGI [13]?
A: The TGI was 42.9 µM.

Q: And the GI50 [14]?
A: The GI50 was 4.41 µM.

Q: What about the TGI [14] of the same molecule?
A: The TGI was 17.4 µM.

Q: What about the GI50 [15] of the same molecule?
A: Its GI50 is 5.58 µM.

Q: What about the TGI [15] of the same molecule?
A: The TGI was > 100 µM.

Q: What about the GI50 [16] of the same molecule?
A: Its GI50 is 14.7 µM.

Q: What about the TGI [16] of the same molecule?
A: Its TGI is 32.4 µM.

Q: What about the GI50 [17] of the same molecule?
A: The GI50 was 11.8 µM.

Q: And the TGI [17]?
A: Its TGI is 24.6 µM.

Q: What about the GI50 [18] of the same molecule?
A: Its GI50 is 17.6 µM.

Q: And the TGI [18]?
A: The TGI was 38.2 µM.

Q: And the GI50 [19]?
A: The GI50 was 12.6 µM.

Q: What about the TGI [19] of the same molecule?
A: Its TGI is 37.9 µM.

Q: What about the GI50 [20] of the same molecule?
A: The GI50 was 2.69 µM.

Q: What about the TGI [20] of the same molecule?
A: The TGI was 7.56 µM.

Q: And the GI50 [21]?
A: Its GI50 is 13.1 µM.

Q: What about the TGI [21] of the same molecule?
A: Its TGI is 28.7 µM.

Q: And the GI50 [22]?
A: Its GI50 is 20 µM.

Q: And the TGI [22]?
A: The TGI was > 100 µM.

Q: What about the GI50 [23] of the same molecule?
A: Its GI50 is 9.93 µM.

Q: What about the TGI [23] of the same molecule?
A: The TGI was 56.4 µM.

Q: What about the GI50 [24] of the same molecule?
A: Its GI50 is 3.93 µM.

Q: And the TGI [24]?
A: The TGI was 17.9 µM.

Q: What about the GI50 [25] of the same molecule?
A: The GI50 was 12.1 µM.

Q: And the TGI [25]?
A: Its TGI is 51.9 µM.

Q: And the GI50 [26]?
A: The GI50 was 2.14 µM.

Q: And the TGI [26]?
A: Its TGI is 5.34 µM.

Q: And the GI50 [27]?
A: The GI50 was 27.7 µM.

Q: And the TGI [27]?
A: Its TGI is > 100 µM.

Q: What about the GI50 [28] of the same molecule?
A: Its GI50 is 12.7 µM.

Q: And the TGI [28]?
A: Its TGI is > 100 µM.

Q: And the GI50 [29]?
A: The GI50 was 12 µM.

Q: What about the TGI [29] of the same molecule?
A: Its TGI is 37.5 µM.

Q: And the GI50 [30]?
A: Its GI50 is 12.1 µM.
